US20230250106A1, “COMPOUNDS AND COMPOSITIONS FOR TREATING CONDITIONS ASSOCIATED WITH STING ACTIVITY” (IFM Due, Inc., priority 2020, published 2023)

system: STING pathway; assay: STING reporter assay: luciferase reporter activity in THP1-Dual KO-IFNAR2 cells activated with 2'3'cGAMP; type: cell-based; conditions: Homo sapiens, 2'3'cGAMP 15 μM, 24 h, read-out: hSTING EC50
Experimental: STING pathway activation by the compounds described herein was measured using THP1-Dual™ cells (KO-IFNAR2).
THP1-Dual™ KO-IFNAR2 Cells (obtained from invivogen) were maintained in RPMI, 10% FCS, 5 ml P/S, 2 mM L-glut, 10 mM Hepes, and 1 mM sodium pyruvate. Compounds were spotted in empty 384 well tissue culture plates (Greiner 781182) by Echo for a final concentration of 0.0017-100 μM. Cells were plated into the TC plates at 40 μL per well, 2×10E6 cells/mL. For activation with STING ligand, 2′3′cGAMP (MW 718.38, obtained from Invivogen), was prepared in Optimem media.
The following solutions were prepared for each 1×384 plate: • Solution A: 2 mL Optimem with one of the following stimuli: • 60 μL of 10 mM 2′3′cGAMP→150 μM stock • Solution B: 2 mL Optimem with 60 μL Lipofectamine 2000→Incubate 5 min at RT
2 mL of solution A and 2 ml Solution B was mixed and incubated for 20 min at room temperature (RT). 20 μL of transfection solution (A+B) was added on top of the plated cells, with a final 2′3′cGAMP concentration of 15 μM. The plates were then centrifuged immediately at 340 g for 1 minute, after which they were incubated at 37° C., 5% CO2,>98% humidity for 24 h. Luciferase reporter activity was then measured. EC50 values were calculated by using standard methods known in the art.
Luciferase reporter assay: 10 μL of supernatant from the assay was transferred to white 384-plate with flat bottom and squared wells. One pouch of QUANTI-Luc™ Plus was dissolved in 25 mL of water. 100 μL of QLC Stabilizer per 25 mL of QUANTI-Luc™ Plus solution was added. 50 μL of QUANTI-Luc™ Plus/QLC solution per well was then added. Luminescence was measured on a Platereader (e.g., Spectramax I3X (Molecular Devices GF3637001)).
Luciferase reporter activity was then measured. EC50 values were calculated by using standard methods known in the art.

Compound | EC50 [nM]
C[C@@H](c1ccc(C(=O)Nc2c[nH]c3cc(F)c(F)cc23)cc1F)N1CC(F)(F)C1 (single isomer, unassigned) [Compound 244, (R or S)—N-(5,6-difluoro-1H-indol-3-yl)-4-(1-(3,3-difluoroazetidin-1-yl)-1l3-ethyl)-3-fluorobenzamide] | 200 to 1000
C[C@H](c1ccc(C(=O)Nc2c[nH]c3cc(F)c(F)cc23)cc1F)N1CC(F)(F)C1 (single isomer, unassigned) [Compound 245, (R or S)—N-(5,6-difluoro-1H-indol-3-yl)-4-(1-(3,3-difluoroazetidin-1-yl)-1l3-ethyl)-3-fluorobenzamide] | 200 to 1000
O=C(Nc1c[nH]c2cc(F)c(F)cc12)c1cnc(N2CC3(C2)CC(F)(F)C3)c(Cl)c1 [Compound 101, 5-chloro-N-(5,6-difluoro-1H-indol-3-yl)-6-(6,6-difluoro-2-azaspiro[3.3]heptan-2-yl)nicotinamide] | 200 to 1000
CC(C)n1cc(-c2ccc3[nH]cc(NC(=O)c4cnc(N5CCC(F)(F)CC5)c(Cl)c4)c3c2)cn1 [Compound 102, 5-chloro-6-(4,4-difluoropiperidin-1-yl)-N-(5-(1-isopropyl-1H-pyrazol-4-yl)-1H-indol-3-yl)nicotinamide] | 200 to 1000
COCCCNc1ncc(C(=O)Nc2c[nH]c3cc(F)c(F)cc23)cc1C [Compound 103, N-(5,6-difluoro-1H-indol-3-yl)-6-((3-methoxypropyl)amino)-5-methylnicotinamide] | 5000 to 100000
N#Cc1ccc2c(NC(=O)c3ccc(OCCCC(F)(F)F)c(F)c3)c[nH]c2c1 [Compound 104, N-(6-cyano-1H-indol-3-yl)-3-fluoro-4-(4,4,4-trifluorobutoxy)benzamide] | 1000 to 5000
O=C(Nc1c[nH]c2cc(F)c(F)cc12)c1cc(Cc2ccc(C(F)(F)F)cc2)c(=O)[nH]n1 [Compound 105, N-(5,6-difluoro-1H-indol-3-yl)-6-oxo-5-(4-(trifluoromethyl)benzyl)-1,6-dihydropyridazine-3-carboxamide] | 200 to 1000
O=C(Nc1c[nH]c2cc(F)c(F)cc12)c1ccnc(OC(F)F)c1 [Compound 106, N-(5,6-difluoro-1H-indol-3-yl)-2-(difluoromethoxy)pyridine-4-carboxamide] | 200 to 1000
N#Cc1cc(C(=O)Nc2c[nH]c3cc(F)c(F)cc23)cnc1N1CCC(F)(F)CC1 [Compound 107, 5-cyano-N-(5,6-difluoro-1H-indol-3-yl)-6-(4,4-difluoropiperidin-1-yl)nicotinamide] | 200 to 1000
O=C(Nc1c[nH]c2cc(F)c(F)cc12)c1ccc(C2CC(F)(F)C2)cc1 [Compound 108, N-(5,6-difluoro-1H-indol-3-yl)-4-(3,3-difluorocyclobutyl)benzamide] | 200 to 1000
O=C(Nc1c[nH]c2cc(F)c(F)cc12)c1ccc(OC2CC(F)(F)C2)cc1 [Compound 109, N-(5,6-difluoro-1H-indol-3-yl)-4-(3,3-difluorocyclobutoxy)benzamide] | 200 to 1000
O=C(Nc1c[nH]c2cc(F)c(F)cc12)c1ccc(CCOC(F)(F)F)cc1 [Compound 110, N-(5,6-difluoro-1H-indol-3-yl)-4-(2-(trifluoromethoxy)ethyl)benzamide] | 40 to 200
O=C(Nc1c[nH]c2c(F)cncc12)c1ccc(OCCCC(F)(F)F)c(F)c1 [Compound 111, 3-fluoro-N-(7-fluoro-1H-pyrrolo[3,2-c]pyridin-3-yl)-4-(4,4,4-trifluorobutoxy)benzamide] | 1000 to 5000
COc1cc(C(=O)Nc2c[nH]c3cc(F)c(F)cc23)ccc1C(F)(F)F [Compound 112, N-(5,6-difluoro-1H-indol-3-yl)-3-methoxy-4-(trifluoromethyl)benzamide] | 200 to 1000
CC(C)Oc1cc(C(=O)Nc2c[nH]c3cc(F)c(F)cc23)ccn1 [Compound 113, N-(5,6-difluoro-1H-indol-3-yl)-2-(propan-2-yloxy)pyridine-4-carboxamide] | 200 to 1000
O=C(Nc1c[nH]c2cc(F)c(F)cc12)c1ccc(OC(F)(F)F)c(Cl)c1 [Compound 114, 3-chloro-N-(5,6-difluoro-1H-indol-3-yl)-4-(trifluoromethoxy)benzamide] | 200 to 1000
O=C(Nc1c[nH]c2cc(F)c(F)cc12)c1cc(F)c(OCC(F)(F)F)c(F)c1 [Compound 115, N-(5,6-difluoro-1H-indol-3-yl)-3,5-difluoro-4-(2,2,2-trifluoroethoxy)benzamide] | 200 to 1000
O=C(Nc1c[nH]c2cc(F)c(F)cc12)c1ccc(OC(F)F)cc1 [Compound 116, N-(5,6-difluoro-1H-indol-3-yl)-4-(difluoromethoxy)benzamide] | 200 to 1000
O=C(Nc1c[nH]c2cc(F)c(F)cc12)c1cccc(OC(F)(F)C(F)F)c1 [Compound 117, N-(5,6-difluoro-1H-indol-3-yl)-3-(1,1,2,2-tetrafluoroethoxy)benzamide] | 200 to 1000

Compound | EC50 [nM]
O=C(Nc1c[nH]c2cc(F)c(F)cc12)c1ccc(Oc2cccnc2)cc1 [Compound 118, N-(5,6-difluoro-1H-indol-3-yl)-4-(pyridin-3-yloxy)benzamide] | 200 to 1000
Cc1cc(OC(F)(F)F)cc(C(=O)Nc2c[nH]c3cc(F)c(F)cc23)c1 [Compound 119, N-(5,6-difluoro-1H-indol-3-yl)-3-methyl-5-(trifluoromethoxy)benzamide] | 200 to 1000
CC(C)Oc1ccc(C(=O)Nc2c[nH]c3cc(F)c(F)cc23)cc1C#N [Compound 120, 3-cyano-N-(5,6-difluoro-1H-indol-3-yl)-4-(propan-2-yloxy)benzamide] | 200 to 1000
O=C(Nc1c[nH]c2cc(F)c(F)cc12)c1cccc(OC(F)F)c1 [Compound 121, N-(5,6-difluoro-1H-indol-3-yl)-3-(difluoromethoxy)benzamide] | 1000 to 5000
O=C(Nc1c[nH]c2cc(F)c(F)cc12)c1ccc(OCC(F)(F)F)cc1Cl [Compound 122, 2-chloro-N-(5,6-difluoro-1H-indol-3-yl)-4-(2,2,2-trifluoroethoxy)benzamide] | 200 to 1000
O=C(NCc1ccc(C(=O)Nc2c[nH]c3cc(F)c(F)cc23)cc1)OCc1cccnc1 [Compound 123, (pyridin-3-yl)methyl N-({4-[(5,6-difluoro-1H-indol-3-yl)carbamoyl]phenyl}methyl)carbamate] | 1000 to 5000
O=C(Nc1c[nH]c2cc(F)c(F)cc12)c1cccc(OC2CCOCC2)n1 [Compound 124, N-(5,6-difluoro-1H-indol-3-yl)-6-(oxan-4-yloxy)pyridine-2-carboxamide] | 5000 to 100000
O=C(Nc1c[nH]c2cc(F)c(F)cc12)c1cccc(OC(F)(F)F)c1 [Compound 125, N-(5,6-difluoro-1H-indol-3-yl)-3-(trifluoromethoxy)benzamide] | 200 to 1000
CC(C)Oc1ccc(C(=O)Nc2c[nH]c3cc(F)c(F)cc23)cc1C(F)(F)F [Compound 126, N-(5,6-difluoro-1H-indol-3-yl)-4-(propan-2-yloxy)-3-(trifluoromethyl)benzamide] | 200 to 1000
O=C(Nc1c[nH]c2cc(F)c(F)cc12)c1ccc(OC(F)F)c(OCC2CC2)c1 [Compound 127, 3-(cyclopropylmethoxy)-N-(5,6-difluoro-1H-indol-3-yl)-4-(difluoromethoxy)benzamide] | 200 to 1000
CC(C)Oc1ccc(C(=O)Nc2c[nH]c3cc(F)c(F)cc23)cc1 [Compound 128, N-(5,6-difluoro-1H-indol-3-yl)-4-isopropoxybenzamide] | 200 to 1000
O=C(Nc1c[nH]c2cc(F)c(F)cc12)c1ccc(OCCN2CCCCC2)cc1 [Compound 129, N-(5,6-difluoro-1H-indol-3-yl)-4-[2-(piperidin-1-yl)ethoxy]benzamide] | 1000 to 5000
O=C(Nc1c[nH]c2cc(F)c(F)cc12)c1ccc(OCC2CC2)cc1 [Compound 130, 4-(cyclopropylmethoxy)-N-(5,6-difluoro-1H-indol-3-yl)benzamide] | 200 to 1000
O=C(Nc1c[nH]c2cc(F)c(F)cc12)c1cccc(OCc2ccccc2)c1 [Compound 131, 3-(benzyloxy)-N-(5,6-difluoro-1H-indol-3-yl)benzamide] | 1000 to 5000
CCCCOc1ccc(C(=O)Nc2c[nH]c3cc(F)c(F)cc23)cc1 [Compound 132, 4-butoxy-N-(5,6-difluoro-1H-indol-3-yl)benzamide] | 200 to 1000
O=C(Nc1c[nH]c2cc(F)c(F)cc12)c1ccc(Oc2ccc(C(F)(F)F)cn2)cc1 [Compound 133, N-(5,6-difluoro-1H-indol-3-yl)-4-{[5-(trifluoromethyl)pyridin-2-yl]oxy}benzamide] | 200 to 1000
O=C(Nc1c[nH]c2cc(F)c(F)cc12)c1ccc(OCC(F)(F)F)c(F)c1 [Compound 134, N-(5,6-difluoro-1H-indol-3-yl)-3-fluoro-4-(2,2,2-trifluoroethoxy)benzamide] | 200 to 1000
O=C(Nc1c[nH]c2cc(F)c(F)cc12)c1ccc(OC(F)(F)F)cc1 [Compound 135, N-(5,6-difluoro-1H-indol-3-yl)-4-(trifluoromethoxy)benzamide] | 200 to 1000
